Laboratory results: patent US10947188B2, “Small molecule ferroptosis inducers” (THE TRUSTEES OF COLUMBIA UNIVERSITY IN THE CITY OF NEW YORK, priority 2016, dated 2021)

System: HT-1080
Experiment: Modulatory profiling: Alamar Blue viability, lethal compound cotreated with death modulator (EC50, AUC); on AUC HT.BHA: reference of the scale not given here; on AUC HT.EGTA: reference of the scale not given here
Format: cell-based
Set-up: AUC, modulator HT.3MA / AUC, modulator HT.ALLN / AUC HT.ATA / AUC HT.ActD / AUC HT.BHA / AUC HT.BHT / AUC HT.BocD / AUC HT.CHX / AUC HT.Co2+ / AUC HT.DPQ / AUC HT.EGTA / AUC HT.Lmim / AUC HT.NAD+ / AUC HT.Nec-1 / AUC HT.SP600125 / AUC HT.TLCK / AUC HT.U0126: unit not given beside the values
Conditions: for AUC HT.ATA: HT-1080, modulator ATA; for AUC HT.ActD: HT-1080, modulator ActD; for AUC HT.BHA: HT-1080, modulator BHA; for AUC HT.BHT: HT-1080, modulator BHT; for AUC HT.BocD: HT-1080, modulator BocD; for AUC HT.CHX: HT-1080, modulator CHX; for AUC HT.Co2+: HT-1080, modulator Co2+; for AUC HT.CspA: HT-1080, modulator CspA; for AUC HT.DPQ: HT-1080, modulator DPQ; for AUC HT.EGTA: HT-1080, modulator EGTA; for AUC HT.Gd3+: HT-1080, modulator Gd3+; for AUC HT.LNAME: HT-1080, modulator LNAME; for AUC HT.Lmim: HT-1080, modulator Lmim; for AUC HT.NAD+: HT-1080, modulator NAD+; for AUC HT.NMMA: HT-1080, modulator NMMA; for AUC HT.Nec-1: HT-1080, modulator Nec-1; for AUC HT.Pepstatin: HT-1080, modulator Pepstatin; for AUC HT.SP600125: HT-1080, modulator SP600125; for AUC HT.TLCK: HT-1080, modulator TLCK; for AUC HT.U0126: HT-1080, modulator U0126; for HT.atoc (AUC) / HT.bCarotene (AUC) / HT.deferox (AUC) / HT.digoxin (AUC) / HT.trolox (AUC) / HT.zVAD (AUC): HT-1080; for HT.atoc (AUC): modulator atoc; for HT.bCarotene (AUC): modulator bCarotene; for HT.deferox (AUC): modulator deferox; for HT.digoxin (AUC): modulator digoxin; for HT.trolox (AUC): modulator trolox; for HT.zVAD (AUC): modulator zVAD; for AUC, modulator HT.3MA / AUC, modulator HT.ALLN: HT-1080 cells, modulatory profile value (AUC); for AUC, modulator HT.3MA: lethal compound cotreated with modulator 3MA; for AUC, modulator HT.ALLN: lethal compound cotreated with modulator ALLN

SMILES | AUC HT.ATA | AUC HT.ActD | AUC HT.BHA | AUC HT.BHT | AUC HT.BocD | AUC HT.CHX | AUC HT.Co2+ | AUC HT.CspA | AUC HT.DPQ | AUC HT.EGTA | AUC HT.Gd3+ | AUC HT.LNAME | AUC HT.Lmim | AUC HT.NAD+ | AUC HT.NMMA | HT.atoc (AUC) | HT.bCarotene (AUC) | HT.deferox (AUC) | HT.digoxin (AUC) | HT.trolox (AUC) | further results
CC(C)C[C@H](NC(=O)[C@H](Cc1ccccc1)NC(=O)c1cnccn1)B(O)O [Bortezomib] | 0.0541 | −0.07229 | −0.04985 | −0.131 | 0.02874 | 0.02631 | 0.06445 | −0.2224 | 0.01079 | −0.006629 | −0.02823 | 0.009924 | 0.01347 | 0.139 | 0.01354 | 0.007023 | −0.01914 | −0.01672 | 0.07916 | −0.004183 | AUC HT.Nec-1: −0.06186; AUC HT.Pepstatin: −8.033E−05; AUC HT.SP600125: −0.03028; AUC HT.TLCK: 0.07195; AUC HT.U0126: −0.03187; HT.zVAD (AUC): 0.01074; AUC, modulator HT.3MA: −0.07171; AUC, modulator HT.ALLN: −0.08587
CC1CC(C)(C)Nc2ccc(OC(=O)c3ccco3)cc21 (stereo not shown) [CIL4] | 0.02806 | −0.001463 | −0.00931 | −0.02212 | 0.1272 | 0.1096 | −0.144 | −0.04696 | 0.007359 | 0.01533 | −0.009953 | 0.01005 | −0.01928 | −0.01381 | −0.007501 | 0.02362 | 0.001026 | −3.785E−05 | −0.02389 | −0.0201 | AUC HT.Nec-1: 0.002499; AUC HT.Pepstatin: 0.00928; AUC HT.SP600125: −0.006297; AUC HT.TLCK: 0.0172; AUC HT.U0126: 0.0005624; HT.zVAD (AUC): 0.0146; AUC, modulator HT.3MA: 0.02219; AUC, modulator HT.ALLN: 0.02482
CN(C)CC(O)Cn1c2ccc(Cl)cc2c2cc(Cl)ccc21 (stereo not shown) [CIL5] | 0.0005893 | −0.00753 | −0.08502 | −0.09917 | 0.01524 | 0.09726 | 0.08698 | −0.02159 | 0.009641 | −0.009215 | −0.0257 | 0.02263 | 0.003574 | 0.03421 | −0.003405 | 0.03603 | −0.01403 | −0.01025 | 0.005534 | 0.01247 | AUC HT.Nec-1: 0.003351; AUC HT.Pepstatin: 0.01965; AUC HT.SP600125: −0.02149; AUC HT.TLCK: −0.004057; AUC HT.U0126: −0.02944; HT.zVAD (AUC): −0.01378; AUC, modulator HT.3MA: 0.0132; AUC, modulator HT.ALLN: 0.07446
O=C1c2ccccc2-c2onc3ccc(Oc4ccccc4)c1c23 [CIL6] | 0.007654 | −0.008928 | −0.007636 | −0.06114 | 0.076 | 0.161 | 0.04208 | −0.01275 | 0.04323 | 0.01026 | −0.02897 | 0.0157 | −0.01064 | 0.04899 | −0.02292 | 0.1204 | −0.0173 | 0.02051 | 0.009607 | −0.01697 | AUC HT.Nec-1: 0.01299; AUC HT.Pepstatin: 0.0188; AUC HT.SP600125: −0.01195; AUC HT.TLCK: −0.00546; AUC HT.U0126: 0.04846; HT.zVAD (AUC): −0.01676; AUC, modulator HT.3MA: 0.06096; AUC, modulator HT.ALLN: 0.04648
OCCNCC(O)Cn1c2ccc(Br)cc2c2cc(Br)ccc21 (stereo not shown) [CIL7] | −0.01671 | −0.01197 | −0.06352 | −0.103 | 0.07799 | 0.0511 | 0.1062 | −0.06441 | 0.005254 | 0.006456 | −0.02982 | 0.01998 | −0.002674 | 0.07707 | −0.02442 | 0.02896 | −0.0174 | −0.05071 | 0.003869 | −0.006321 | AUC HT.Nec-1: 0.007138; AUC HT.Pepstatin: −0.00124; AUC HT.SP600125: −0.04155; AUC HT.TLCK: −0.01113; AUC HT.U0126: 0.01556; HT.zVAD (AUC): −0.03773; AUC, modulator HT.3MA: −0.004626; AUC, modulator HT.ALLN: 0.1136
CC(C)(C)C1CCc2c(sc(NC(=O)CN3CCNCC3)c2C(N)=O)C1 (stereo not shown) [CIL10] | 0.01743 | −0.01865 | −0.02863 | −0.08663 | 0.1385 | 0.05132 | 0.1226 | 0.004872 | 0.004305 | −0.007776 | −0.02788 | 0.02616 | −0.02065 | 0.04087 | −0.009286 | 0.1034 | −0.01201 | −0.004319 | 0.01443 | −0.006674 | AUC HT.Nec-1: 0.03698; AUC HT.Pepstatin: −0.01087; AUC HT.SP600125: −0.009227; AUC HT.TLCK: −0.001631; AUC HT.U0126: 0.01126; HT.zVAD (AUC): −0.01286; AUC, modulator HT.3MA: −0.01982; AUC, modulator HT.ALLN: 0.1067
Cc1cccnc1Nc1nc(-c2ccccn2)cs1 [CIL13] | 0.04672 | −0.04327 | −0.06288 | −0.104 | 0.09941 | 0.03999 | 0.2924 | 0.06243 | −0.01515 | 0.08353 | −0.03072 | −0.07962 | −0.06102 | −0.04462 | −0.04118 | 0.1029 | 0.01006 | 0.05411 | 0.03512 | −0.03975 | HT.zVAD (AUC): 0.01164; AUC, modulator HT.3MA: 0.02535; AUC, modulator HT.ALLN: 0.01646; effect of cobalt (II) on lethality (modulatory profiles, CoCl2 supplementation): inhibited by cobalt (II)
CCCS(=O)(=O)c1nnnn1-c1cccc(OC)c1 [CIL15] | −0.002809 | 0.01242 | −0.03993 | −0.1489 | 0.1021 | 0.06342 | 0.1397 | −0.007032 | −0.02394 | −0.0006158 | −0.03881 | 0.001309 | −0.04837 | 0.01762 | −0.01943 | 0.1224 | −0.003906 | 0.04237 | −0.01238 | −0.02956 | HT.zVAD (AUC): −0.04682; AUC, modulator HT.3MA: 0.0263; AUC, modulator HT.ALLN: 0.0001245
COc1cccc(-n2nnnc2S(C)(=O)=O)c1 [CIL16] | 0.003965 | 0.01875 | −0.05937 | −0.1721 | 0.1414 | 0.08543 | 0.155 | 0.008389 | −0.02205 | −0.0002723 | −0.0407 | 0.01974 | −0.05546 | 0.05126 | −0.03154 | 0.1025 | −0.01322 | 0.05919 | −0.01884 | −0.01524 | HT.zVAD (AUC): 0.005482; AUC, modulator HT.3MA: 0.02993; AUC, modulator HT.ALLN: −0.03286
C[S+]([O-])c1nc(-c2ccc(Br)cc2)cc(-c2ccccc2)c1C#N (stereo not shown) [CIL17] | −0.0157 | −0.03982 | −0.02052 | −0.138 | 0.0313 | 0.06579 | −0.008436 | −0.03354 | −0.02303 | 0.001857 | −0.04318 | 0.02242 | −0.0132 | 0.04423 | −0.02639 | 0.145 | −0.005211 | 0.02894 | −0.003189 | 0.004595 | HT.zVAD (AUC): 0.008536; AUC, modulator HT.3MA: 0.01558; AUC, modulator HT.ALLN: 0.03631
CCCCNc1cc(C)nc(NCc2ccccc2)n1 [CIL18] | 0.001415 | 0.0184 | −0.08703 | −0.1394 | 0.06607 | 0.1179 | 0.1598 | −0.04827 | −0.01276 | −0.009461 | −0.03302 | 0.01329 | −0.004987 | 0.09493 | −0.02918 | 0.1295 | −0.0001406 | −0.009951 | −0.004198 | −0.01205 | HT.zVAD (AUC): 0.0101; AUC, modulator HT.3MA: 0.01461; AUC, modulator HT.ALLN: 0.07303
O=c1c(N2CCCC2)c(Cl)cnn1-c1ccccc1 [CIL20] | −0.001276 | −0.006608 | 0.0001715 | −0.08075 | 0.01009 | 0.1212 | 0.1205 | −0.05648 | −0.03779 | −0.01805 | −0.02607 | 0.01703 | 0.002914 | 0.05985 | −0.0209 | 0.0292 | 0.008618 | 0.03912 | 0.01851 | 0.03002 | HT.zVAD (AUC): −0.02079; AUC, modulator HT.3MA: 0.004881; AUC, modulator HT.ALLN: 0.09673
